Key:
[1] = tested on: A549/DX; experiment: Intracellular total ROS production in A549/DX (DCFDA-AM); type: cell-based, human; conditions: for Intracellular ROS production with cis-Pt: 10 μM + 25 μM cis-Pt; for Intracellular ROS production with cis-Pt / Intracellular ROS production, compound alone: 24 h; for Intracellular ROS production, compound alone / Intracellular ROS production with ROS scavenger Tempol: 10 μM; for Intracellular ROS production with ROS scavenger Tempol: with 10 mM Tempol
Source text: One of the possible reasons of this sensitization is the ability of these three compounds to inhibit the efflux of cis-Pt, which is MRP1-mediated. […] This could be associated with a second reason, considering one of the putative mechanisms of CS consisting of an increased production of ROS, capable of triggering the apoptosis of MDR cells. To investigate whether this mechanism is involved in the sensitizing effects elicited by F397, F400, and F421, we measured the intracellular ROS production in A549/DX after 24 h treatment with these three molecules at 10 μM, with and without 25 μM cis-Pt (Figure 5A). […] Moreover, to verify whether the increase in ROS induced the reduction in cell viability elicited by the compounds, we evaluated the antiproliferative effect at 72 h of these three sensitizers alone and with 25 μM cis-Pt, adding 10 mM Tempol at time zero and after 48 h from the incubation.
Here, 1 × 10^6 whole cells were re-suspended in a final volume of 0.5 mL PBS and incubated for 30 min at 37 °C with 5 μM of the fluorescent probe 5-(and-6)-chloromethyl-2’,7’-dichlorodihydro-fluorescein diacetate-acetoxymethyl ester (DCFDA-AM, Sigma Chemicals Co.) in the dark. Cells were then centrifuged at 13,000× g at 37 °C and re-suspended in 0.5 mL PBS. The fluorescence of each sample, considered as the index of ROS levels, was read at 492 (λ excitation) and 517 nm (λ emission) using a Synergy HT Multi-Mode Microplate Reader (Bio-Tek Instruments). The results were expressed as nmol total ROS/mg cell proteins. A preliminary titration curve was set up by incubating the cells for 1 h with the cells treated with serial dilutions (10–0.01 nM) of the pro-oxidant agent menadione.

[2] = target: MRP1 (Homo sapiens, UniProt P33527); experiment: Calcein-AM transport inhibition in MDCK-MRP1 cells (MRP1 activity)
Procedure: Each cell line (30,000 cells per well) was seeded into a black CulturePlate 96/well plate with a 100 μL medium and allowed to become confluent overnight. […] In these experimental conditions, the Calcein cell accumulation in the absence and in the presence of the tested compounds was evaluated and the fluorescence basal level was estimated with the untreated cells. In treated wells, the increase in fluorescence with respect to the basal level was measured. EC50 values were determined by fitting the fluorescence increase percentage vs. log(dose).

[3] = tested on: A549/DX cells; experiment: Cytotoxicity in A549/DX and parental A549 cells, selectivity ratio; type: cell-based, human; conditions: cytotoxicity in parental A549 vs resistant A549/DX cells, 24 h
Source text: Therefore, A549/DX cells were selected as a model to investigate the CS properties of our compounds. Firstly, in order to confirm the data observed on the “pure” model MDCK-MRP1, we tested, in the same experimental conditions, the SR of F397, F400, and F421 by measuring their cytotoxicity in the resistant A549/DX cells and their parental counterpart A549, obtaining an SR ≥ 2 for all (SR = 2.5 for derivative F397, SR = 2.1 for F400, and SR = 2 for F421).
Since the doubling time of A549 cells is 22 h and the doubling time of A549/DX cells is 61 h (data not shown), in this first experimental set we used a 24 h time, i.e., the most suitable for A549 cells’ cytotoxicity as performed in the “pure” MRP1 model. Indeed, the accurate detection of cell viability in A549 cells was critical in calculating the SR in a reliable manner. The following experiments, all performed in A549/DX cells, were performed after 72 h, i.e., the best timing to detect a cytotoxic effect on the slowly growing resistant population.
(§1) The determination of cell growth was performed using an MTT assay at 24 or 72 h. On day 1, 10,000 cells/well were seeded into 96-well plates in a volume of 100 μL. On day 2, the drugs concentrations (0.1, 1, 10, 25 μM) were added. In all the experiments, the various drug solvents (ethanol, DMSO) were added in each control to evaluate a possible solvent cytotoxicity. After the established incubation time with drugs, 10 μL MTT (0.5 mg/mL) was added to each well, and after 3 h incubation at 37°C, the supernatant was removed. The formazan crystals were solubilized using 100 μL of DMSO and the absorbance values at 570 and 630 nm were determined on the microplate reader Victor 3 from PerkinElmer Life Sciences. The absorbance of the untreated cells was considered equal to 100% cell viability; the viability of cells measured in each experimental condition was expressed as a percentage of viable cells in the considered condition vs. the viability of the untreated cells.

[4] = tested on: sigma-2 receptors; conditions: cited from earlier work; for Ki: read-out: Ki towards sigma-2 receptors
[5] = tested on: MDCK-MRP1 cells; experiment: Antiproliferative MTT assay in MDCK-wt and MDCK-MRP1 cells, selectivity ratio; type: cell-based, canine; conditions: EC50 of MDCK cells/EC50 of MDCK-MRP1 cells
Procedure: Within the search for novel CS agents acting on MRP1 proteins, the compounds selected among the different series of sigma-2 ligands were investigated for their activity at MRP1, paralleled with their cytotoxicity in the parental Madin–Darby canine kidney (MDCK-wt) cells and in the MDR-derived cells (MDCK-MRP1) for the determination of their SR (EC50 parental cells/EC50 MDR cells). The activity at the MRP1 pump was determined measuring the transport inhibition of the pro-fluorescent probe Calcein-AM, an MRP1 substrate, in the MRP1-overexpressing cell line (MDCK-MRP1) by the in vitro biological assay usually performed to study an MRP1 interaction. […] The SR was measured as the EC50 of the MDCK cells/EC50 of the MDCK-MRP1 cells.
as §1, with “On day 2, the drugs concentrations (0.1, 1, 10, 25 μM) were added.” left out

[6] = tested on: A549/DX cells; experiment: Cell viability (MTT) of A549/DX cells at 72 h, alone and in co-administration; type: cell-based, human; conditions: for Cell viability / cytotoxic effect, compound alone: 10 μM; for Cell viability in co-administration with MRP1 inhibitor MK571: compound 10 μM + MK571 25 μM; for Cytotoxic effect in co-administration with cis-Pt: compound 10 μM + cis-Pt 25 μM
Procedure: Indeed, the accurate detection of cell viability in A549 cells was critical in calculating the SR in a reliable manner.
First, we wondered if there was a correlation between the inhibition of the MRP1 protein and the CS properties of the compounds.
as §1, with “On day 2, the drugs concentrations (0.1, 1, 10, 25 μM) were added.” left out

Sequence of MRP1 (P33527 whole entry): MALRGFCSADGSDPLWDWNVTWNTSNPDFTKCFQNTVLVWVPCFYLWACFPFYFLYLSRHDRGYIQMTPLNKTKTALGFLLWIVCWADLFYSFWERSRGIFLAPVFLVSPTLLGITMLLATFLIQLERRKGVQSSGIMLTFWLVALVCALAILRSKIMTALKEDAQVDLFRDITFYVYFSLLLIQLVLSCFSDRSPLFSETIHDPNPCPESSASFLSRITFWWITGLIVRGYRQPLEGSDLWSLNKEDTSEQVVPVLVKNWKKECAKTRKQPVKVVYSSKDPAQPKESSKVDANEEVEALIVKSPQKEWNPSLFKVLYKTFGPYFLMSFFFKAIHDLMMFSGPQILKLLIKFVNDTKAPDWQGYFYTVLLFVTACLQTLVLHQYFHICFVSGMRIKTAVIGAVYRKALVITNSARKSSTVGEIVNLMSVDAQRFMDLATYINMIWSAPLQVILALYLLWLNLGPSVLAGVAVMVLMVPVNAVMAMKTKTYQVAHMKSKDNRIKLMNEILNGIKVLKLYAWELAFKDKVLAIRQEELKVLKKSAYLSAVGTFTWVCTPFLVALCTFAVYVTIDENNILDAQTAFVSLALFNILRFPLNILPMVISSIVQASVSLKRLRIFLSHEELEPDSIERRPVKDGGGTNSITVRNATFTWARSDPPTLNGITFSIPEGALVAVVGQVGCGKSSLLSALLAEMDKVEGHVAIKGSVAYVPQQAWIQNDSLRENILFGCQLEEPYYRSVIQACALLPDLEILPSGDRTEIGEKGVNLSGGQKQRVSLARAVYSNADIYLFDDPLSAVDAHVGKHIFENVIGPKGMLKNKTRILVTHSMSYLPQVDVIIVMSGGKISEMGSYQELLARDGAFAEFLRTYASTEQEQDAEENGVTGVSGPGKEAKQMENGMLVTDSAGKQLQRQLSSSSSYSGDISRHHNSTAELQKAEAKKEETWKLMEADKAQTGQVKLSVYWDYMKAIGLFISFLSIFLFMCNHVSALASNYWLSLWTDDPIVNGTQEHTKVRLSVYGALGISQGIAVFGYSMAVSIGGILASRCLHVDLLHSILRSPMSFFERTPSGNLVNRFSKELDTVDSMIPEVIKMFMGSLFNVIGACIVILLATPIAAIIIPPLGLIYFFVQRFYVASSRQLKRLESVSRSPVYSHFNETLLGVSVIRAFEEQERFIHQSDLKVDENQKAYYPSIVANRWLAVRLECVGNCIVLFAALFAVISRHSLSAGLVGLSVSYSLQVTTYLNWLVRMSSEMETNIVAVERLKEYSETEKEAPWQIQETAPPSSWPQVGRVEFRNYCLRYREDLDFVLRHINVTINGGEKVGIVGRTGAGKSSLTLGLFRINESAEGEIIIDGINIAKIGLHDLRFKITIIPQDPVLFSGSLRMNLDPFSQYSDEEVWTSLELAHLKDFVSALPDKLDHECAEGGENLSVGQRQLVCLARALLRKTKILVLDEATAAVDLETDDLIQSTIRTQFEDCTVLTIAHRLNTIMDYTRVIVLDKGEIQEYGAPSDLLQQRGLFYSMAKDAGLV

Row | SMILES | Intracellular ROS production with cis-Pt [1] | Intracellular ROS production, compound alone [1] | Intracellular ROS production with ROS scavenger Tempol [1] | EC50 [2] [µM] | SR (selectivity ratio) [3] | sigma-2 receptor affinity [4] | SR (selectivity ratio) [5] | Cell viability / cytotoxic effect, compound alone [6] | Cell viability in co-administration with MRP1 inhibitor MK571 [6] | Cytotoxic effect in co-administration with cis-Pt [6] | Ki [4] [µM]
1 | COc1cc2c(cc1OC)CN(C(=O)CCC1CCCc3c(OC)cccc31)CC2 (stereo not drawn) [F400, 6,7-dimethoxy-2-[3-(5-methoxy-1,2,3,4-tetrahydronaphthalen-1-yl)propionyl]-1,2,3,4 tetrahydroisoquinoline] | further enhanced when they were co-administrated with the antineoplastic drug | increased the amount of intracellular ROS | reverted by the ROS scavenger Tempol | 17.6 ± 3.8 | 2.1 | devoid of sigma-2 receptor affinity | 5.91 | cytotoxic effect on their own | reverted by the MRP1 inhibitor MK571 | drastically increases upon co-administration with cis-Pt | 
2 | COc1cc2c(cc1OC)CN(CCCCc1cn(-c3ccc(F)cc3)c3ccccc13)CC2 [F397, 6,7-dimethoxy-2-{4-[1-(4-fluorophenyl)-1H-indol-3-yl]butyl}-1,2,3,4-tetrahydroisoquinoline] | further enhanced when they were co-administrated with the antineoplastic drug | increased the amount of intracellular ROS | reverted by the ROS scavenger Tempol | 16.7 ± 3.2 | 2.5 |  | 3.41 | cytotoxic effect on their own | reverted by the MRP1 inhibitor MK571 | drastically increases upon co-administration with cis-Pt | 0.00534
3 | COc1ccc(CNCCCCc2cn(-c3ccc(F)cc3)c3ccccc23)cc1OC [F421, N-{4-[1-(4-fluorophenyl)-1H-indol-3-yl]butyl}-3,4-dimethoxybenzylamine] | further enhanced when they were co-administrated with the antineoplastic drug | increased the amount of intracellular ROS | reverted by the ROS scavenger Tempol | 28 ± 4.8 | 2 |  | 2.47 | cytotoxic effect on their own | reverted by the MRP1 inhibitor MK571 | drastically increases upon co-administration with cis-Pt | 0.169

Source: PMC7247425, “MRP1-Collateral Sensitizers as a Novel Therapeutic Approach in Resistant Cancer Therapy: An In Vitro and In Vivo Study in Lung Resistant Tumor” (International Journal of Molecular Sciences, 2020)
